Experimental data taken from patent US12064443B2 (priority 2021, dated 2024).

Tests used:
[1] = cited from earlier work
[2] = tested on: Cholera toxin (CTx) challenge; conditions: mouse, in vivo

For O=S(=O)([O-])OC[C@H]1O[C@@](COS(=O)(=O)[O-])(O[C@H]2O[C@H](COS(=O)(=O)[O-])[C@@H](OS(=O)(=O)[O-])[C@H](OS(=O)(=O)[O-])[C@H]2OS(=O)(=O)[O-])[C@@H](OS(=O)(=O)[O-])[C@@H]1OS(=O)(=O)[O-].[K+].[K+].[K+].[K+].[K+].[K+].[K+].[K+] [Sucrose octasulfate-potassium salt], the “Solubility in water” value [1] is listed as “freely soluble”.
In the case of Sucralfate, the “Effect on volume of intestinal secretion upon CTx challenge” value [2] is listed as “neither polyphenol nor sucralfate reduced the volume of intestinal secretion” and the “Solubility in water” value [1] is listed as “poorly soluble”.
